According to patent publication US6737383B1, “Herbicidal oxadiazolidines” (priority 1999, dated 2004):

Assays:
velvetleaf = assay: Test B pre/postemergence velvetleaf; type: in vivo, Abutilon theophrasti; conditions: for Velvetleaf plant response rating: scale of 0 to 10 where 0 is no effect and 10 is complete control
How it was run: (§1)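 Test chemicals in a non-phytotoxic solvent mixture with surfactant were sprayed preemergence onto planted seeds and postemergence onto plants 2 to 18 cm tall (1- to 4-leaf stage). After twelve to sixteen days in a greenhouse, injury was visually rated against untreated controls from 0 (no effect) to 10 (complete control).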

surinam grass = assay: Test B pre/postemergence surinam grass; type: in vivo, Brachiaria decumbens
How it was run: as §1

morningglory = assay: Test B pre/postemergence morningglory; type: in vivo, Ipomoea hederacea; conditions: for Morningglory plant response rating: scale of 0 to 10 where 0 is no effect and 10 is complete control
How it was run: as §1

sugar beet = assay: Test B pre/postemergence sugar beet; type: in vivo, Beta vulgaris; conditions: for Sugarbeets plant response rating: scale of 0 to 10 where 0 is no effect and 10 is complete control
How it was run: as §1

wheat = assay: Test B pre/postemergence wheat; type: in vivo, Triticum aestivum; conditions: for Wheat plant response rating: scale of 0 to 10 where 0 is no effect and 10 is complete control
How it was run: as §1

soybean = assay: Test B pre/postemergence soybean; type: in vivo, Glycine max; conditions: for Soybean plant response rating: scale of 0 to 10 where 0 is no effect and 10 is complete control
How it was run: as §1

pigweed = assay: Test B pre/postemergence pigweed; type: in vivo, Amaranthus retroflexus; conditions: for Redroot pigweed plant response rating: scale of 0 to 10 where 0 is no effect and 10 is complete control
How it was run: as §1

cocklebur = assay: Test B pre/postemergence cocklebur; type: in vivo, Xanthium strumarium; conditions: for Cocklebur plant response rating: scale of 0 to 10 where 0 is no effect and 10 is complete control
How it was run: as §1

smallflower flatsedge = assay: Test B flood test smallflower flatsedge; type: in vivo, Cyperus difformis
How it was run: (§2)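 Plants were grown to the 2-leaf stage before treatment with test chemical, then held in a greenhouse for twelve to sixteen days. Injury was visually rated against untreated controls on a 0–10 scale, where 0 is no effect and 10 is complete control.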

wild oat = assay: Test B pre/postemergence wild oat; type: in vivo, Avena fatua; conditions: for Wild oats plant response rating: scale of 0 to 10 where 0 is no effect and 10 is complete control
How it was run: as §1

corn = assay: Test B pre/postemergence corn; type: in vivo, Zea mays; conditions: for Corn plant response rating: scale of 0 to 10 where 0 is no effect and 10 is complete control
How it was run: as §1

rice = assay: Test B flood test rice; type: in vivo, Oryza sativa
How it was run: as §2

rape = assay: Test B pre/postemergence rape; type: in vivo, Brassica napus; conditions: for Rape plant response rating: scale of 0 to 10 where 0 is no effect and 10 is complete control
How it was run: as §1

giant foxtail = assay: Test B pre/postemergence giant foxtail; type: in vivo, Setaria faberii; conditions: for Giant foxtail plant response rating: scale of 0 to 10 where 0 is no effect and 10 is complete control
How it was run: as §1

blackgrass = assay: Test B pre/postemergence blackgrass; type: in vivo, Alopecurus myosuroides
How it was run: as §1

bedstraw = assay: Test B pre/postemergence bedstraw; type: in vivo, Galium aparine
How it was run: as §1

[1] = Postemergence, Rate 125 g/ha, scale 0 to 10, 0 is no effect, 10 is complete control
[2] = Preemergence, Rate 62 g/ha, scale 0 to 10 (0 no effect, 10 complete control)
[3] = Rate 500 g/ha, Postemergence, scale 0 to 10, 0 no effect, 10 complete control
[4] = Preemergence, Rate 250 g/ha, scale of 0 to 10 where 0 is no effect and 10 is complete control
[5] = Preemergence, Rate 500 g/ha, scale of 0 to 10 where 0 is no effect and 10 is complete control
[6] = Rate 62 g/ha, Postemergence, scale of 0 to 10 where 0 is no effect and 10 is complete control
[7] = Rate 250 g/ha, Postemergence, scale of 0 to 10 where 0 is no effect and 10 is complete control
[8] = Postemergence (flood test), Rate 125 g/ha, scale 0 to 10, 0 is no effect, 10 is complete control
[9] = Rate 62 g/ha, Postemergence (flood test species), scale of 0 to 10 where 0 is no effect and 10 is complete control
[10] = Rate 500 g/ha, listed under Postemergence (flood test species), scale 0 to 10, 0 no effect, 10 complete control

COCC(C)n1c(=O)on(C(=O)N(c2ccc(F)cc2F)C(C)C)c1=O (centres unmarked) [Compound 352]
9: Wild oats plant response rating (wild oat; Preemergence, Rate 250 g/ha) | Corn plant response rating (corn; Preemergence, Rate 500 g/ha) | Plant response rating, Giant foxtail (giant foxtail; [3]) | Plant response rating, Blackgrass (blackgrass; [2])
8: Plant response rating, Morningglory (morningglory; [3]) | Plant response rating, Wild oats (wild oat; [2]) | Wild oats plant response rating (0 to 10 scale) (wild oat; Preemergence, Rate 125 g/ha) | Plant response rating, Blackgrass (blackgrass; [1]) | Blackgrass plant response rating (blackgrass; [6]) | Plant response rating, Blackgrass (blackgrass; [7]) | Plant response rating, Blackgrass (blackgrass; [3])
7: Velvetleaf plant response rating (velvetleaf; Preemergence, Rate 500 g/ha) | B. signalgrass plant response rating (surinam grass; [4]) | B. signalgrass plant response rating (surinam grass; [5]) | Plant response rating, B. signalgrass (surinam grass; [7]) | Plant response rating, B. signalgrass (surinam grass; [3]) | Sugarbeets plant response rating (sugar beet; Preemergence, Rate 500 g/ha) | Plant response rating, Wheat (wheat; [3]) | Plant response rating, S. Flatsedge (smallflower flatsedge; [8]) | Plant response rating, S. Flatsedge (smallflower flatsedge; [10]) | Plant response rating, Wild oats (wild oat; [3]) | Rape plant response rating (rape; Preemergence, Rate 500 g/ha)
6: Velvetleaf plant response rating (velvetleaf; Preemergence, Rate 250 g/ha) | B. signalgrass plant response rating (0 to 10 scale, 0 is no effect, 10 is complete control) (surinam grass; Preemergence, Rate 125 g/ha) | Plant response rating, Morningglory (morningglory; [1]) | Wheat plant response rating (wheat; Preemergence, Rate 500 g/ha) | Corn plant response rating (corn; Preemergence, Rate 250 g/ha) | Plant response rating, Corn (corn; [3])
10: Redroot pigweed plant response rating (pigweed; Preemergence, Rate 250 g/ha) | Redroot pigweed plant response rating (pigweed; Preemergence, Rate 500 g/ha) | Wild oats plant response rating (wild oat; Preemergence, Rate 500 g/ha) | Plant response rating, Giant foxtail (giant foxtail; [2]) | Giant foxtail plant response rating (0 to 10 scale) (giant foxtail; Preemergence, Rate 125 g/ha) | Giant foxtail plant response rating (giant foxtail; Preemergence, Rate 250 g/ha) | Giant foxtail plant response rating (giant foxtail; Preemergence, Rate 500 g/ha) | Blackgrass plant response rating (0 to 10 scale) (blackgrass; Preemergence, Rate 125 g/ha) | Blackgrass plant response rating (blackgrass; [4]) | Blackgrass plant response rating (blackgrass; [5])
3: Plant response rating, Velvetleaf (velvetleaf; [3]) | Sugarbeets plant response rating (0 to 10 scale) (sugar beet; Preemergence, Rate 125 g/ha) | Sugarbeets plant response rating (sugar beet; Preemergence, Rate 250 g/ha) | Plant response rating, Wheat (wheat; [1]) | Plant response rating, Redroot pigweed (pigweed; [1]) | Redroot pigweed plant response rating (0 to 10 scale) (pigweed; Preemergence, Rate 125 g/ha) | Plant response rating, Rice (rice; [8]) | Plant response rating, Rice (rice; [10])
4: Velvetleaf plant response rating (0 to 10 scale) (velvetleaf; Preemergence, Rate 125 g/ha) | Plant response rating, Soybean (soybean; [3]) | Plant response rating, Redroot pigweed (pigweed; [3]) | Plant response rating, Bedstraw (bedstraw; [3])
0: Plant response rating, Velvetleaf (velvetleaf; [1]) | Velvetleaf plant response rating (velvetleaf; Rate 62 g/ha, Postemergence) | B. signalgrass plant response rating (surinam grass; [6]) | Plant response rating, Morningglory (morningglory; [2]) | Morningglory plant response rating (0 to 10 scale) (morningglory; Preemergence, Rate 125 g/ha) | Morningglory plant response rating (morningglory; Preemergence, Rate 250 g/ha) | Morningglory plant response rating (morningglory; Rate 62 g/ha, Postemergence) | Plant response rating, Sugarbeets (sugar beet; [1]) | Sugarbeets plant response rating (sugar beet; Rate 62 g/ha, Postemergence) | Plant response rating, Sugarbeets (sugar beet; [3]) | Plant response rating, Wheat (wheat; [2]) | Wheat plant response rating (0 to 10 scale) (wheat; Preemergence, Rate 125 g/ha) | Wheat plant response rating (wheat; Rate 62 g/ha, Postemergence) | Plant response rating, Soybean (soybean; [2]) | Soybean plant response rating (0 to 10 scale) (soybean; Preemergence, Rate 125 g/ha) | Soybean plant response rating (soybean; Preemergence, Rate 250 g/ha) | Redroot pigweed plant response rating (pigweed; Rate 62 g/ha, Postemergence) | Plant response rating, Cocklebur (cocklebur; [1]) | Plant response rating, Cocklebur (cocklebur; [2]) | Cocklebur plant response rating (0 to 10 scale) (cocklebur; Preemergence, Rate 125 g/ha) | Cocklebur plant response rating (cocklebur; Preemergence, Rate 250 g/ha) | Cocklebur plant response rating (cocklebur; Preemergence, Rate 500 g/ha) | Cocklebur plant response rating (cocklebur; Rate 62 g/ha, Postemergence) | Plant response rating, Cocklebur (cocklebur; [3]) | Plant response rating, Wild oats (wild oat; [1]) | Wild oats plant response rating (wild oat; Rate 62 g/ha, Postemergence) | Plant response rating, Corn (corn; [1]) | Plant response rating, Corn (corn; [2]) | Corn plant response rating (corn; Rate 62 g/ha, Postemergence) | Rice plant response rating (rice; [9]) | Plant response rating, Rape (rape; [1]) | Plant response rating, Rape (rape; [2]) | Rape plant response rating (0 to 10 scale) (rape; Preemergence, Rate 125 g/ha) | Rape plant response rating (rape; Preemergence, Rate 250 g/ha) | Rape plant response rating (rape; Rate 62 g/ha, Postemergence) | Plant response rating, Rape (rape; [3]) | Plant response rating, Bedstraw (bedstraw; [1]) | Plant response rating, Bedstraw (bedstraw; [2]) | Bedstraw plant response rating (0 to 10 scale) (bedstraw; Preemergence, Rate 125 g/ha) | Bedstraw plant response rating (bedstraw; [6])
2: Plant response rating, Velvetleaf (velvetleaf; [2]) | Plant response rating, B. signalgrass (surinam grass; [1]) | Plant response rating, B. signalgrass (surinam grass; [2]) | Morningglory plant response rating (morningglory; Preemergence, Rate 500 g/ha) | Plant response rating, Sugarbeets (sugar beet; [2]) | Wheat plant response rating (wheat; Preemergence, Rate 250 g/ha) | Plant response rating, Soybean (soybean; [1]) | Soybean plant response rating (soybean; Preemergence, Rate 500 g/ha) | Soybean plant response rating (soybean; Rate 62 g/ha, Postemergence) | S. Flatsedge plant response rating (smallflower flatsedge; [9]) | Plant response rating, Giant foxtail (giant foxtail; [1]) | Giant foxtail plant response rating (giant foxtail; Rate 62 g/ha, Postemergence) | Plant response rating, Bedstraw (bedstraw; [7])
5: Corn plant response rating (0 to 10 scale) (corn; Preemergence, Rate 125 g/ha)
